Assay results as given in ChEMBL document CHEMBL4840359, “N-Terminus to Arginine Side-Chain Cyclization of Linear Peptidic Neuropeptide Y Y4 Receptor Ligands Results in Picomolar Binding Constants” (J Med Chem, 2021).
pEC50, pKi: −log10 of the molar value. Activity calls are given as the source filed them. The rule behind the calls is not given here. Residues, ends and D or L forms follow the SMILES beside them.

Legend:
[1] = biological target: T1, Neuropeptide Y receptor type 4 (Homo sapiens, UniProt P50391); assay: Intrinsic activity at human neuropeptide Y Y4 receptor expressed in HEK293T-ARRB2 cells assessed as stimulation of beta-arrestin 2 recruitment by multimode plate reader relative to hPP; type: functional, cell-based
T1 sequence (P50391 whole entry): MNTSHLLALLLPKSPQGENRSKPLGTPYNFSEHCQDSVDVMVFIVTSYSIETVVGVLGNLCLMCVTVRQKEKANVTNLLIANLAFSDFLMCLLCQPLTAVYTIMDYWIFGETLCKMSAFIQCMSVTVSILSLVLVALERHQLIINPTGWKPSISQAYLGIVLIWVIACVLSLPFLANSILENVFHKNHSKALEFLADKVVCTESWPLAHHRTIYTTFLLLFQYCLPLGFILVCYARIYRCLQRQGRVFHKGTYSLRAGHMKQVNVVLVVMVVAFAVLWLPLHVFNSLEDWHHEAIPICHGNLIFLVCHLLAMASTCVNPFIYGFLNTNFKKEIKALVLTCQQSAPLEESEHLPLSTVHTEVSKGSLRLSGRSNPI

[2] = biological target: T1, Neuropeptide Y receptor type 4; assay: Displacement of [3H]UR-KK200 from human neuropeptide Y Y4 receptor expressed in CHO-mtAEQ cells co-expressing Gqi5 assessed as fold change in affinity measured after 90 mins by scintillation counting analysis relative to Ac-Arg-Tyr-Arg-Leu-Arg-Tyr-NH2; type: cell-based; settings: filed as agonist
[3] = species on record: Homo sapiens; assay: Selectivity ratio, Ki for displacement of [3H]propionyl-pNPY from human neuropeptide Y Y5 receptor in human HEC-1B cells measured after 90 mins by scintillation counting analysis to Ki for displacement of [3H]UR-KK200 from human neuropeptide Y Y4 receptor expressed in CHO-mtAEQ cells co-expressing Gqi5 measured after 90 mins by scintillation counting analysis; type: cell-based
[4] = species on record: Homo sapiens; assay: Selectivity ratio, Ki for displacement of [3H]UR-MK299 from human neuropeptide Y Y2 receptor expressed in CHO cells measured after 90 mins by scintillation counting analysis to Ki for displacement of [3H]UR-KK200 from human neuropeptide Y Y4 receptor expressed in CHO-mtAEQ cells co-expressing Gqi5 measured after 90 mins by scintillation counting analysis; type: cell-based
[5] = biological target: T1, Neuropeptide Y receptor type 4; assay: Intrinsic activity at human neuropeptide Y Y4 receptor expressed in CHO-mtAEQ cells co-expressing Gqi5 by calcium aequorin assay; type: functional, cell-based
[6] = biological target: T1, Neuropeptide Y receptor type 4; assay: Agonist activity at human neuropeptide Y Y4 receptor expressed in HEK293T-ARRB1 cells assessed as stimulation of beta-arrestin 1 recruitment by multimode plate reader; type: functional, cell-based; settings: for pEC50: read-out: EC50
[7] = biological target: T1, Neuropeptide Y receptor type 4; assay: Agonist activity at human neuropeptide Y Y4 receptor expressed in CHO-mtAEQ cells co-expressing Gqi5 by calcium aequorin assay; type: functional, cell-based
[8] = biological target: T1, Neuropeptide Y receptor type 4; assay: Intrinsic activity at human neuropeptide Y Y4 receptor expressed in HEK293T-ARRB1 cells assessed as stimulation of beta-arrestin 1 recruitment by multimode plate reader relative to hPP; type: functional, cell-based
[9] = biological target: T2, Neuropeptide Y receptor type 5 (Homo sapiens, UniProt Q15761); assay: Displacement of [3H]propionyl-pNPY from human neuropeptide Y Y5 receptor in human HEC-1B cells measured after 90 mins by scintillation counting analysis; type: cell-based, HEC-1B cell line; settings: for pKi: read-out: Ki; for Ki: read-out: pKi (converted)
T2 sequence (Q15761 whole entry): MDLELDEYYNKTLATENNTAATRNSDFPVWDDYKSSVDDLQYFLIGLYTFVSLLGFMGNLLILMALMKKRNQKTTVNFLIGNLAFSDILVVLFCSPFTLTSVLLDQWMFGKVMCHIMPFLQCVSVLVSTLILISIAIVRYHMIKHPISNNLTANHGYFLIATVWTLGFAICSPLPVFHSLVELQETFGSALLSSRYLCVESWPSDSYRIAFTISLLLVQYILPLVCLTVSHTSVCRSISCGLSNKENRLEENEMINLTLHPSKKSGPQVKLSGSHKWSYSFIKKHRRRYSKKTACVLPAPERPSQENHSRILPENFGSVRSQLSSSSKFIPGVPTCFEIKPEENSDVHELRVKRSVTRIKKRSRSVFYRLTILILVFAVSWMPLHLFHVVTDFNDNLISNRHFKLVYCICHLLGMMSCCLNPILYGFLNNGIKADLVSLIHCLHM

[10] = biological target: T1, Neuropeptide Y receptor type 4; assay: Displacement of [3H]UR-KK200 from human neuropeptide Y Y4 receptor expressed in CHO-mtAEQ cells co-expressing Gqi5 measured after 90 mins by scintillation counting analysis; type: cell-based; settings: for pKi: read-out: Ki; for Ki: read-out: pKi (converted)
[11] = biological target: T3, Neuropeptide Y receptor type 1 (Homo sapiens, UniProt P25929); assay: Displacement of [3H]UR-MK299 from human neuropeptide Y Y1 receptor in human SK-N-MC cells measured after 90 mins by scintillation counting analysis; type: cell-based; settings: for Ki: read-out: pKi (converted); for pKi: read-out: Ki
T3 sequence (P25929 whole entry): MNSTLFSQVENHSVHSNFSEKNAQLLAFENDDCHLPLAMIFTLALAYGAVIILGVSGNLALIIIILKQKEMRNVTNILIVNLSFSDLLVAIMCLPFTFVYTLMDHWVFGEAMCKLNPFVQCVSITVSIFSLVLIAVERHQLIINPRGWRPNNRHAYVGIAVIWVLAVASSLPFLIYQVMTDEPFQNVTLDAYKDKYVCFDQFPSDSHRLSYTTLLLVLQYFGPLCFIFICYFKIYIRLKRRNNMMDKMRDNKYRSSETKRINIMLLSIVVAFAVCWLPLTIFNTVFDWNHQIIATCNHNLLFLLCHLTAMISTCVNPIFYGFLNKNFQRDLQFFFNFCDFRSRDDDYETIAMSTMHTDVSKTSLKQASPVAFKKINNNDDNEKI

[12] = biological target: T1, Neuropeptide Y receptor type 4; assay: Agonist activity at human neuropeptide Y Y4 receptor expressed in HEK293T-ARRB2 cells assessed as stimulation of beta-arrestin 2 recruitment by multimode plate reader; type: functional, cell-based
[13] = biological target: T4, Neuropeptide Y receptor type 2 (Homo sapiens, UniProt P49146); assay: Displacement of [3H]UR-MK299 from human neuropeptide Y Y2 receptor expressed in CHO cells measured after 90 mins by scintillation counting analysis; type: cell-based; settings: for pKi: read-out: Ki; for Ki: read-out: pKi (converted)
T4 sequence (P49146 whole entry): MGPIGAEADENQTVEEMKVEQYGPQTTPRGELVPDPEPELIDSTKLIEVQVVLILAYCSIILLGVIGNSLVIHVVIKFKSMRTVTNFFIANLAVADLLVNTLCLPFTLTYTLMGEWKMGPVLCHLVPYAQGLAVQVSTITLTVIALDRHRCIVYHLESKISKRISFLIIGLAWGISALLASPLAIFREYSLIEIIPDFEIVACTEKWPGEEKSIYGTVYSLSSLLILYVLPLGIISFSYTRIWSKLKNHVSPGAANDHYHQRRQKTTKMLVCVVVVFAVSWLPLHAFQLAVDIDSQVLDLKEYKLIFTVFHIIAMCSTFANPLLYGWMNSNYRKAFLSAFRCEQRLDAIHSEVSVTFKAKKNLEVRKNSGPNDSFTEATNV

[14] = species on record: Homo sapiens; assay: Selectivity ratio, Ki for displacement of [3H]UR-MK299 from human neuropeptide Y Y1 receptor in human SK-N-MC cells measured after 90 mins by scintillation counting analysis to Ki for displacement of [3H]UR-KK200 from human neuropeptide Y Y4 receptor expressed in CHO-mtAEQ cells co-expressing Gqi5 measured after 90 mins by scintillation counting analysis; type: cell-based

Intrinsic activity [1]	fold change (FC) [2]	Intrinsic activity [5]	pEC50 [6]	pEC50 [7]	Intrinsic activity [8]	pKi ([9]; hec-1b cell line)	Ki [9] [nM]	pKi [10]	Ki [10] [nM]	Ki [11] [nM]	pEC50 [12]	pKi [13]	Ki [13] [nM]	pKi [9]	pKi [11]	EC50 ([6]; read-out: pEC50 (converted)) [nM]	SMILES	Selectivity ratio [3]	Selectivity ratio [4]	Selectivity ratio [14]
71%	5.2	65%	7.30	6.75	61%	< 5.00	> 10000	9.18	0.646	> 10000	6.89	< 5.00	> 10000				CC(C)C[C@H](NC(=O)[C@H](CCCNC(=N)NC(=O)NCCCN)NC(=O)[C@H](Cc1ccc(O)cc1)NC(=O)[C@H](CCCNC(=N)N)NC(=O)CCC(=O)O)C(=O)N[C@@H](CCCNC(=N)N)C(=O)N[C@@H](Cc1ccc(O)cc1)C(N)=O	> 15000	> 15000	> 15000
74%	1.4	48%	6.54	6.17	64%		> 3160	8.60		457	6.75	< 5.00	> 10000	< 5.52	6.12		CC(C)C[C@H](NC(=O)[C@H](CCCNC(=N)N)NC(=O)[C@@H]1CCC(=O)N[C@@H](CCCNC(=N)N)C(=O)NCC(=O)N[C@@H](Cc2ccc(O)cc2)C(=O)N1)C(=O)N[C@@H](CCCNC(=N)N)C(=O)N[C@@H](Cc1ccc(O)cc1)C(N)=O (HELM PEPTIDE1{R.G.Y.E.R.L.R.Y.[am]}$PEPTIDE1,PEPTIDE1,1:R1-4:R3$$$V2.0)	> 1200	> 4000	300
83%	2.1	61%	6.89	6.72	84%	< 5.00	> 10000	8.80		> 10000	7.02	< 5.00	> 10000		< 5.52		N=C(N)NCCC[C@@H]1NC(=O)CCC(=O)NCCCCNC(=O)NC(=N)NCCC[C@@H](C(=O)N[C@@H](Cc2c[nH]c3ccccc23)C(=O)N[C@@H](CCCNC(=N)N)C(=O)N[C@@H](Cc2ccc(O)cc2)C(N)=O)NC(=O)[C@H](Cc2ccc(O)cc2)NC1=O (HELM PEPTIDE1{R.Y.[N=C(NCCC[C@H](N[*:1])C(=O)[*:2])N[*:3]].W.R.Y.[am]}|CHEM1{[O=C(CCC(=O)[*:1])NCCCCNC(=O)[*:2]]}$PEPTIDE1,CHEM1,1:R1-1:R1|PEPTIDE1,CHEM1,3:R3-1:R2$$$V2.0)	> 6200	> 6200	> 1800
inactive	-8.8	inactive		< 5.00	inactive		> 3160	7.52	28.8	> 3160	< 5.00	< 5.52	> 3160	< 5.52	< 5.52	> 10000	CC(C)C[C@H](NC(=O)[C@@H]1CCC(=O)NCC(=O)N[C@H](CCCNC(=N)N)C(=O)N[C@@H](CCCNC(=N)N)C(=O)N1)C(=O)N[C@@H](CCCNC(=N)N)C(=O)N[C@@H](Cc1ccc(O)cc1)C(N)=O	> 100	> 100	> 100
